Reference: patent US20160045482A1, “UREIDO-PYRAZOLE DERIVATIVES” (Respivert Limited, priority 2010, published 2016)

Assays:
HRV16 [1] = experiment: Assessment of HRV16 induced CPE in MRC5; assay type: cell-based, human rhinovirus 16; details: MRC5 cells; for IC50: Rhinovirus A, 96 h, HRV16 MOI of 1, 4 days, read-out: HRV16-induced CPE IC50 Value
Description: The supernatants were aspirated and fresh media was added and the preparations were then incubated for 4 days. Where appropriate, cells were pre-incubated with the test compound or DMSO for 2 hr, and the compounds and DMSO added again after washout of the virus. Supernatants were aspirated and incubated with methylene blue solution (2% formaldehyde, 10% methanol and 0.175% Methylene Blue) for 2 hr at RT. After washing, 1% SDS was added to each well, and plates were shaken lightly for 1-2 hr prior to reading the absorbance at 660 nm. The percentage inhibition for each well was calculated. The IC50 value was calculated from the concentration-response curve generated from the serial dilutions of the test compound.

IL-8 = IL-8 release activated by human rhinovirus in BEAS2B cells; assay type: cell-based; details: Homo sapiens, BEAS-2B; BEAS2B cells, MOI of 5, 72 hr; read-out: HRV16-induced IL-8 IC50 Value
Description: BEAS2B cells were infected with rhinovirus at an MOI of 5 and incubated for 2 hr at 33° C. with gentle shaking to enhance adsorption. Test compounds were added 2 hr before HRV infection and 2 hr after infection when residual extracellular HRV was washed out. The cells were then washed with PBS, fresh media was added and the cells were incubated for a further 72 hr. The supernatant was collected for assay of IL-8 concentrations using the Duoset ELISA development kit (R&D Systems, Minneapolis, Minn.).

ICAM-1 = experiment: ICAM1 expression activated by human rhinovirus in BEAS2B cells (cell-based ELISA); details: for IC50: Homo sapiens, BEAS-2B, HRV16 inoculation (2 hr infection), read-out: HRV16-induced ICAM1 IC50 Value
Description: BEAS2B cells were infected with rhinovirus at an MOI of 5 and incubated for 2 hr at 33° C. with gentle shaking to enhance adsorption. Test compounds were added 2 hr before HRV infection and 2 hr after infection when residual extracellular HRV was washed out. The cells were then washed with PBS, fresh media was added and the cells were incubated for a further 72 hr. The supernatant was collected for assay of IL-8 concentrations using the Duoset ELISA development kit (R&D Systems, Minneapolis, Minn.). […] After appropriate incubation, cells were fixed with 4% formaldehyde in PBS. After quenching endogenous peroxidase by adding 0.1% sodium azide and 1% hydrogen peroxide, wells were washed with buffer (0.05% Tween in PBS: PBS-Tween). After incubation with the blocking solution (5% milk in PBS-Tween for 1 hr), cells were incubated with anti-human ICAM-1 antibody in 5% BSA PBS-Tween (1:500) overnight. Wells were then washed with PBS-Tween and incubated with the secondary antibody (HRP-conjugated anti-rabbit IgG, Dako Ltd.).

HRV16 [2] = experiment: HRV-16 infection, assessment of virus load (TCID50) in MRC5 cells; assay type: cell-based, human rhinovirus 16; details: HRV16 0.1 MOI, 3 days
Description: Human rhinovirus RV16 (HRV16) was obtained from the American Type Culture Collection (Manassas, Va.). Viral stocks were generated by infecting Hela cells with HRV until 80% of the cells were cytopathic. MRC5 cells (human lung fibroblast, ATCC) were infected at 0.1 MOI (multiplicity of infection of 0.1) of HRV16 and incubated for 1 hr at 33° C. with gentle shaking to stimulate adsorption. The cells were then washed with PBS, fresh media (DMEM-5% FCS) was added and the cells were incubated for a further 72 hr. Supernatant (20 μL) was collected and 10-fold serial dilutions were prepared with DMEM containing 1% FCS. All titrations were performed by infecting confluent Hela cell monolayers with serially diluted supernatant (10^−1-10^−5) and then the cytopathic effect at each dilution 3 days after infection assessed by visual inspection. The cells were then stained with Crystal Violet for confirmation. The amount of virus required to infect 50% of Hela cells was calculated in each treatment as TCID50 (50% tissue culture infectious dose, U(unit)/20 μL). Compounds were added 2 hr before HRV16 infection and 1 hr after infection when non-infected HRV was washed out.

IRF-3 = experiment: HRV-16 induced activation of IRF-3 in BEAS2B cells; assay type: cell-based, human; details: after 2 hr, at 10 MOI
Description: (§1) The cells were then collected by scraping on ice and nuclear extracts were prepared using a nuclear protein extraction kit (ActiveMotif, […], Belgium). NFκB activity and IRF3 activity were then measured using the TransAMTM NFκB (p65) ELISA kit or the TransAMTM IRF3 ELISA kit.

NFκB = experiment: HRV-16 induced activation of NFκB in BEAS2B cells; assay type: cell-based, human; details: after 2 hr, at 10 MOI
Description: as §1

HRV16 mRNA = experiment: Transcripts of HRV16 by PCR in MRC5 cellular extract; assay type: cell-based, human rhinovirus 16; details: MRC5 cells, HRV16 0.1 MOI, 3 days
Description: The MRC5 cells infected with virus (as described above) were used for viral RNA or mRNA detection. Total RNA extraction and reverse transcription were performed using TaqMan®Fast Cells-to-CT™ Kit (Ambion Inc. Austin Tex.). The gene transcript level of HRV16 (PrimerDesign Ltd, Southampton, UK), IFN (Applied Biosystems, Warrington, UK) and GAPDH, as a house-keeping gene (PrimerDesign Ltd, Southampton, UK) were quantified by real-time PCR using commercially available primers on a StepOnePlus™ RT-PCR system (Applied Biosystems, Warrington, UK). Variations in cDNA concentrations between different samples were corrected using the housekeeping gene, whereby the GAPDH concentration in each cDNA sample was calculated, and the cDNA diluted to contain equal amounts of GAPDH. Standard curves for GAPDH were generated by performing a dilution series of the untreated control cDNA. The relative amount of gene transcript present after different treatments was calculated and normalized by dividing the calculated value for the gene of interest by that of the house-keeping gene value.

HRV16 [3] = experiment: HRV-16 infection, assessment of virus load (TCID50) in MRC5 cells; assay type: cell-based, human rhinovirus 16; details: pilot studies
rhinovirus = details: Jefferson and Tyrrell 2007; cited from earlier work
[4] = listed as Fluticasone propionate

| IC50 (IL-8) | Structure (SMILES) | HRV16-induced CPE (in words) (HRV16 [1]) | IC50 (HRV16 [1]) | also measured |
| --- | --- | --- | --- | --- |
| 0.069 nM | Cc1ccc(-n2nc(C(C)(C)C)cc2NC(=O)Nc2ccc(Oc3ccnc(NC(=O)N4CCOCC4)c3)c3ccccc23)cc1 [Example 43, N-(4-(4-(3-(3-tert-Butyl-1-p-tolyl-1H-pyrazol-5-yl)ureido)naphthalen-1-yloxy)pyridin-2-yl)morpholine-4-carboxamide] | inhibited HRV16-induced CPE in MRC5 cells in a concentration-dependent manner | 9.5 nM | – |
| 0.041 nM | Cc1ccc(-n2nc(C(C)(C)C)cc2NC(=O)Nc2ccc(Oc3ccnc(NC(=O)N4CCN(C)CC4)c3)c3ccccc23)cc1 [Example 44, N-(4-((4-(3-(3-(tert-Butyl)-1-(p-tolyl)-1H-pyrazol-5-yl)ureido)naphthalen-1-yl)oxy)pyridin-2-yl)-4-methylpiperazine-1-carboxamide] | inhibited HRV16-induced CPE in MRC5 cells in a concentration-dependent manner | 16.3 nM | IC50 (ICAM-1): 0.069 nM |
| – | Cc1ccc(-n2nc(C(C)(C)C)cc2NC(=O)Nc2ccc(OCCN3CCOCC3)c3ccccc23)cc1 [BIRB-796] | – | – | HRV-16 virus load (extracellular) (HRV16 [2]): No effect; IRF-3 activation (HRV-16 induced) (IRF-3): tendency to inhibit |
| – | COc1cc(Nc2ncc(F)c(Nc3ccc4c(n3)NC(=O)C(C)(C)O4)n2)cc(OC)c1OC [Example R-406] | – | – | NFκB activation (HRV-16 induced) (NFκB): inhibited |
| 0.041 nM | Cc1ccc(-n2nc(C(C)(C)C)cc2NC(=O)Nc2ccc(Oc3ccnc(NC(=O)N(C)C)c3)c3ccccc23)cc1 [Example 45, 3-(4-((4-(3-(3-(tert-Butyl)-1-(p-tolyl)-1H-pyrazol-5-yl)ureido)naphthalen-1-yl)oxy)pyridin-2-yl)-1,1-dimethylurea] | inhibited HRV16-induced CPE in MRC5 cells in a concentration-dependent manner | 9.4 nM | IC50 (ICAM-1): 0.098 nM |
| – | Cc1ccc(-n2nc(C(C)(C)C)cc2NC(=O)Nc2ccc(Oc3ccnc(NC(=O)N4CC[C@@H](N(C)C)C4)c3)c3ccccc23)cc1 [Example 55, (R)-N-(4-(4-(3-(3-tert-Butyl-1-p-tolyl-1H-pyrazol-5-yl)ureido)naphthalen-1-yloxy)pyridin-2-yl)-3-(dimethylamino)pyrrolidine-1-carboxamide] | inhibited HRV16-induced CPE in MRC5 cells in a concentration-dependent manner | 14.3 nM | – |
| – | Cc1ccc(-n2nc(C(C)(C)C)cc2NC(=O)Nc2ccc(Oc3ccnc(NC(=O)N4CCCC4)c3)c3ccccc23)cc1 [Example 14, N-(4-(4-(3-(3-tert-Butyl-1-p-tolyl-1H-pyrazol-5-yl)ureido)naphthalen-1-yloxy)pyridin-2-yl)pyrrolidine-1-carboxamide] | inhibited HRV16-induced CPE in MRC5 cells in a concentration-dependent manner | 3.3 nM | – |
| 0.12 nM | CNC(=O)Nc1cc(Oc2ccc(NC(=O)Nc3cc(C(C)(C)C)nn3-c3ccc(C)cc3)c3ccccc23)ccn1 [Example 37] | inhibited HRV16-induced CPE in MRC5 cells in a concentration-dependent manner | 24 nM | IC50 (ICAM-1): 0.029 nM |
| 0.019 nM | Cc1ccc(-n2nc(C(C)(C)C)cc2NC(=O)Nc2ccc(Oc3ccnc(NC(N)=O)c3)c3ccccc23)cc1 [Example 30, 4-(4-(3-(3-tert-Butyl-1-p-tolyl-1H-pyrazol-5-yl)ureido)naphthalen-1-yloxy)pyridin-2-ylurea] | inhibited HRV16-induced CPE in MRC5 cells in a concentration-dependent manner | 2.9 nM | – |
| – | Cc1cc(CCCOc2c(C)cc(-c3noc(C(F)(F)F)n3)cc2C)on1 [pleconaril] | – | – | HRV-16 virus load (extracellular) (HRV16 [2]): clearly inhibits; HRV16 mRNA detected in cellular extracts (HRV16 mRNA): clearly inhibits; Effect of treatment time versus the point of inoculation with HRV16 (HRV16 [3]): essentially only effective if the drug was administered prior to infection; Activity against rhinovirus infections in clinical development (rhinovirus): active against rhinovirus infections |
| – | CCC(=O)O[C@]1(C(=O)SCF)[C@H](C)C[C@H]2[C@@H]3C[C@H](F)C4=CC(=O)C=C[C@]4(C)[C@@]3(F)[C@@H](O)C[C@@]21C [fluticasone propionate] | – | – | HRV-16 virus load (extracellular) (HRV16 [2]): without effect; HRV-16 virus load (extracellular) (HRV16 [2]; [4]): No effect; HRV16 mRNA detected in cellular extracts (HRV16 mRNA): without effect; IRF-3 activation (HRV-16 induced) (IRF-3): tendency to inhibit; ICAM-1 expression induced by HRV16 inoculation (in words) (ICAM-1; 2 hr infection): much more modest; Concentrations at which concentration-dependent effects on ICAM-1 are apparent, relative to Reference Compound 2 (ICAM-1; results not shown): 10,000 fold; NFκB activation (HRV-16 induced) (NFκB): no clear effect; NFκB activation (HRV-16 induced) (NFκB; [4]): No effect |
